Measured values: US9512139B2, “Conformationally constrained, fully synthetic macrocyclic compounds” (POLYPHOR AG, priority 2009, dated 2016)
Where two headings read alike, the source gives them in different places. Each block holds one compound with its values, some of them ahead of it.

Columns and labels:
Motilin Receptor = target: T1, Motilin Receptor (Homo sapiens, UniProt O43193); assay: Ca2+ assay (FLIPR) for the GPCR motilin receptor, agonist and antagonist mode; type: cell-based; conditions: antagonist mode, at 10 μM
T1 construct: host or cells: Ca2+ optimized hematopoietic cell lines (rat)
T1 sequence (O43193 whole entry, species assumed): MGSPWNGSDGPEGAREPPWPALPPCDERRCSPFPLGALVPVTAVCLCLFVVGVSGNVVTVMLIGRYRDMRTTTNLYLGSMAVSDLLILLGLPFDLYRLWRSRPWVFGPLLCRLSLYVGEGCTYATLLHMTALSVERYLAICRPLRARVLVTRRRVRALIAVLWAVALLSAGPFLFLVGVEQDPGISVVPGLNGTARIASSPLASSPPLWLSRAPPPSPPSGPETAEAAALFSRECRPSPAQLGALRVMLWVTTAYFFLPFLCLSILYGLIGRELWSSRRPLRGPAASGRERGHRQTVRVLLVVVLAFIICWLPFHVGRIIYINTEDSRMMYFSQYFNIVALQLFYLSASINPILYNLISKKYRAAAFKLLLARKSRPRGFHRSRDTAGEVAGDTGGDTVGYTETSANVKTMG
Method: Ca^2+ Assays for the GPCRs Motilin Receptor, Prostaglandin F (FP) Receptor, 5-hydroxytryptamine 2B (5-HT2B) Receptor, and Purinoreceptor P2Y1
Assays were performed using on a FLIPR^TETRA fluorometric imaging plate reader (Molecular Devices) with ScreenWorks Version 2 (Molecular Devices) as device operating and data analysis software.
Dose dependent agonist and antagonist activities were determined. Percentage activation and percentage inhibition values were determined.
Percentage activation was determined upon initial addition of the sample compounds followed by 10 minutes incubation at 25° C. Following compound incubation, reference agonists were added at EC80 to determine percentage inhibition.
Reference agonists were purchased from reputable commercial vendors and prepared according to each ligand's specifications. All handling of ligands were done to ensure proper control throughout the experiments.
Example compounds were weighed on a Microbalance (Mettler MX5) and dissolved in 100% DMSO to a final concentration of 2.5 mM and subsequently diluted into the assay buffer.
The Assay buffer was a supplemented HBSS (Hank's Balanced Salt Solution). HBSS was supplemented with 20 mM HEPES (4-(2-hydroxyethyl)-piperazin-1-ethansulfonic acid) and 2.5 mM Probenecid (Sigma P8761).
GPCR assays were performed using Ca^2+ optimized hematopoietic cell lines (rat) with cultures never exceeding 90% confluency. […] After seeding, the assay plates were incubated for forty-five (45) minutes at room temperature. After room temperature incubation, the assay plates were incubated at 37° C. 5% CO2 for 24 hours prior to assaying.
All GPCR assays were performed using Fluo-8 Ca^2+ dye. Ca^2+ dye was prepared at 1× dye concentration in GPCR assay buffer. After 24 hours of incubation, cells were washed with GPCR assay buffer, and then Ca^2+-dye (100 μL/well) was added.
The plates were incubated for 90 minutes at 30° C. 5% CO2 prior to FLIPR assay.
Compound plates were prepared to add 50 μL/well during the agonist assay mode. During the FLIPR assay, 50 μL/well from the compound plate was diluted 3-fold into the existing 100 μL/well from the dye loading step. Therefore all compounds were prepared as 3× the final concentration desired in the assay.
After completion of the first single addition assay run, assay plate was removed from the FLIPR Tetra and placed at 25° C. for seven (7) minutes before antagonist assay.
Using the EC80 values determined during the agonist assay, all pre-incubated sample compound and reference antagonist (if applicable) wells were stimulated at the EC80 of the reference agonist. As reference ligands for the first three assays their obvious natural ligands motilin, prostaglandin F2α, and serotonin (5-HT, 5-Hydroxytryptamine) were used; and for the P2Y1 assay 2MeSATP (2-methyl-thio-adeno-sine 5′-triphosphate, i.e. (2R,3S,4R)-5-(6-amino-2-methylsulfanyl-purin-9-yl)-3,4-dihydroxy-tetrahydrofuran-2-yl]methyl (hydroxy-phosphonooxy-phosphoryl)hydrogen phosphate) was applied.
After the addition of the reference agonist fluorescence was monitored for 180 sec using FLIPR Tetra.
Data Analysis and Results:
From the FLIPR data, with negative control correction enabled, the maximum statistic for each well was exported and percentage activation relative to Emax control was calculated.

in vitro [1] = type: in vitro ADME, mouse; conditions: both, CD-1, mouse, plasma, 10 µM
Method: Example compounds were dissolved in DMSO/H2O 90:10 to a final concentration of 10 mM for plasma stability determination and metabolic stability determination.
Human plasma (3-5 donors, Blutspendedienst SRK, Basel) and CD-1 mouse plasma (mixed gender pool >50 animals, Innovative Research, CA, USA) are both sodium citrate stabilized. The assay is performed in triplicates at 10 μM compound concentration and 37° C. Samples are taken at 0, 15, 60, and 240 minutes and stopped by precipitation with 2 volumes of acetonitrile. The supernatant is collected, evaporated and reconstituted in a 5% acetonitrile solution to be analyzed by HPLC/MS/MS. The resulting peak area counts are expressed in percent of the 0 value and used to determine the endpoint stability in % and the half life in minutes. In order to monitor assay integrity the degradation of propantheline is assayed with every experimental set.

in vitro [2] = type: in vitro ADME, human; conditions: human, plasma, 10 µM
[3] = Metabolic stability assay, human microsomes; type: in vitro ADME; conditions: both, human, microsomes, 10 µM
[4] = Pharmacokinetic study after single i.v. and p.o. administration in male SD rats; type: in vivo; conditions: rat; for half-life: read-out: T1/2 (terminal) (converted)
Method: 5. Pharmacokinetic Study (PK) Analysis
Pharmacokinetic analyses after single intravenous (i.v.) and two different peroral (p.o.) administrations were performed for the test compounds. 240 grams (±10 gram) male SD rats were catheterized and used in the study. The vehicle, Solutol HS-15/0.9% saline (5:95), was added to give a final concentration of 0.33 mg/ml of the compounds for i.v. application, and 0.5 or 2.0 mg/ml for p.o. applications. The volumes used for applications were 3 ml/kg i.v. and 10 ml/kg p.o. resulting in a final dose of 1 mg/kg for the intravenous dose and 5 or 20 mg/kg for the peroral doses.
Blood samples were withdrawn via the catheter at 1) predose, 5, 15, 30, 60, 120, 240, and 480 minutes for the i.v. application and 2) predose, 15, 30, 60, 120, 240, 480 and 720 minutes for the p.o. applications. Plasma was prepared by centrifugation of heparinized whole blood. Plasma samples (˜120 μl each time point, Li-Heparin, 20 IE/ml) were stored at −80° C. until HPLC-MSMS analysis.
Preparation of the Plasma Calibration Samples:
“Blank” rat plasma from untreated animals was used. Aliquots of plasma of 50 μL each were spiked with Internal Standard (ISTD) and with known amounts test compounds in order to obtain 11 plasma calibration samples in the range 0.25-4000 ng/mL.
Preparation of Plasma Samples:
To 50 μL of sample from treated animals 20 μL of internal standard were added. After mixing with 200 μL of acetonitrile, 2% HCOOH were added and each sample was vortexed for several seconds. Precipitated material was removed by centrifugation for 10 min (13200 rpm), the supernatant removed and dried under a constant flow of N2 (Porvair, MiniVap). To reconstitute the dried samples, 200 μL of [DMSO/acetonitrile/H2O, 4/4/2 (v/v/v)+2% HCOOH] were added and the sample was shaken for at least 5 minutes.
LC-MSMS Analysis of Samples:
Reconstituted samples were analysed by HPLC/MSMS on a reverse phase analytical column (BEH C18, 100×2.1 mm, 1.7 μm, Waters). Mobile phase A: H2O/acetonitrile (95:5, v:v) 0.1% formic acid, mobile phase B: Acetonitrile/H2O (95:5, v:v) 0.1% formic acid. Compounds were eluted from the column by using a gradient from 1% B to 60% B in 2.5 min.).
Pharmacokinetic Evaluation:
PK analysis was performed on mean values (generally n=3) using WinNonLin software (Version 5.3, Pharsight Corporation). The area under the curve AUC was calculated by the linear trapezoidal rule (linear interpolation, uniform weighting). AUC(t-∞) was estimated as Ct/b (b: elimination rate constant). […] the sum of AUC(0-t) and AUC(t-∞). Elimination half-life was calculated by the linear regression on at least three data points during the elimination phase. The time intervals selected for the half-life determinations were evaluated by the correlation coefficient (r^2), which should be at least above 0.85 and ideally above 0.96.
In case of i.v. administration the initial concentration at tzero was determined by extrapolation of the curve through the first two time points. Finally bioavailability after p.o. administration was calculated from the dose normalized AUC(0-∞) ration after p.o. versus i.v. administration.

[5] = Metabolic stability assay, rat microsomes (values in parentheses); type: in vitro ADME; conditions: value in parentheses
[6] = Metabolic stability assay, CD-1 mouse microsomes; type: in vitro ADME; conditions: both, CD-1, mouse, microsomes, 10 µM
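Wherever Plasma Stability 240 min mouse [% remain.] is given: sodium citrate stabilized mouse plasma, parent compound quantified by HPLC/MS/MS relative to its peak area at time zero, run in triplicate.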
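Wherever Plasma Stability T½ [min] mouse is given: sodium citrate stabilized mouse plasma, parent compound quantified by HPLC/MS/MS relative to its peak area at time zero, run in triplicate.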

- inhibition at 10 µM (Motilin Receptor): 47%
SMILES: CC(=O)NCCNC(=O)[C@@H]1CCC(=O)N(C)CC(=O)N2C[C@@H](NC(=O)Cc3cccc4ccccc34)C[C@H]2COc2ccc(F)cc2C(=O)N1C [Ex. 487, (2S,11S,19aS)-N-[2-(acetylamino)ethyl]-15-fluoro-7,12-dimethyl-2-{[2-(1-naphthyl)acetyl]amino}-5,8,13-trioxo-2,3,6,7,8,9,10,11,12,13,19,19a-dodecahydro-1H,5H-pyrrolo[2,1-c] [1,4,7,12]benzoxatri-azacyclopentadecine-11-carboxamide]

- inhibition at 10 µM (Motilin Receptor): 29%
SMILES: CN(C)CCNC(=O)[C@@H]1CCC(=O)N(C)CC(=O)N2C[C@@H](NC(=O)Cc3ccc4ccccc4c3)C[C@H]2COc2ccc(F)cc2C(=O)N1C [Ex. 48, (2S,11S,19aS)-N-[2-(dimethylamino)ethyl]-15-fluoro-7,12-dimethyl-2-{[2-(2-naphthyl)acetyl]amino}-5,8,13-trioxo-2,3,6,7,8,9,10,11,12,13,19,19a-dodecahydro-1H,5H-pyrrolo[2,1-c] [1,4,7,12] benzoxatriazacyclopentadecine-11-carboxamide]

- inhibition at 10 µM (Motilin Receptor): 23%
SMILES: CN(C)CCCNC(=O)[C@@H]1CCC(=O)N(C)CC(=O)N2C[C@@H](NC(=O)Cc3cccc4ccccc34)C[C@H]2COc2ccc(F)cc2C(=O)N1C [Ex. 488, (2S,11S,19aS)-N-[3-(dimethylamino)propyl]-15-fluoro-7,12-dimethyl-2-{[2-(1-naphthyl)acetyl]amino}-5,8,13-trioxo-2,3,6,7,8,9,10,11,12,13,19,19a-dodecahydro-1H,5H-pyrrolo[2,1-c] [1,4,7,12] benzoxatriazacyclopentadecine-11-carboxamide]

- Antagonist activity [% Inhibition at 10 μM] (Motilin Receptor): 24%
SMILES: CN1CC(=O)N2C[C@@H](NC(=O)Cc3cccc4ccccc34)C[C@H]2COc2ccc(F)cc2C(=O)N(C)[C@H](C(=O)NCc2cccnc2)CCC1=O [Ex. 497, (2S,11S,19aS)-15-fluoro-7,12-dimethyl-2-{[2-(1-naphthyl)acetyl]amino}-5,8,13-trioxo-N-(3-pyridinylmethyl)-2,3,6,7,8,9, 10,11,12,13,19,19a-dodecahydro-1H,5H-pyrrolo[2,1-c][1,4,7,12]benzoxatriazacyclo-pentadecine-11-carboxamide]

- inhibition at 10 µM (Motilin Receptor): 31%
SMILES: COc1cccc(CC(=O)N[C@H]2C[C@H]3COc4ccc(F)cc4C(=O)N(C)[C@H](C(=O)NCCN(C)C)CCC(=O)N(C)CC(=O)N3C2)c1 [Ex. 496, (2S,11S,19aS)-N-[2-(dimethylamino)ethyl]-15-fluoro-2-{[2-{3-methoxyphenyl)acetyl]amino}-7,12-dimethyl-5,8,13-trioxo-2,3,6,7,8,9,10,11,12,13,19,19a-dodecahydro-1H,5H-pyrrolo[2,1-c] [1,4,7,12]benzoxatriazacyclopentadecine-11-carboxamide]

- inhibition at 10 µM (Motilin Receptor): 26%
SMILES: CN(C)CCNC(=O)[C@@H]1CCC(=O)N(C)CC(=O)N2C[C@@H](NC(=O)Cc3cccc(C(F)(F)F)c3)C[C@H]2COc2ccc(F)cc2C(=O)N1C [Ex. 495, (2S,11S,19aS)-N-[2-(dimethylamino)ethyl]-15-fluoro-7,12-dimethyl-5,8,13-trioxo-2-({2-[3-(trifluoromethyl)phenyl]acetyl}amino)-2,3,6,7,8,9,10,11,12,13,19,19a-dodecahydro-1H,5H-pyrrolo[2,1-c] [1,4,7,12] benzoxatriazacyclopentadecine-11-carboxamide]

- Plasma Stability T½ [min] mouse (in vitro [1]): > 240 min
- Plasma Stability 240 min mouse [% remain.] (in vitro [1]; 4 h): 89 % remain.
- Plasma Stability T½ [min] hum (in vitro [2]): > 240 min
- Plasma Stability 240 min hum [% remain.] (in vitro [2]; 4 h): 86 % remain.
- Metabolic Stability T½ [min] hum [3]: > 60 min
- Metabolic Stability 60 min hum [% remain.] ([3]; 1 h): 90 % remain.
- Cmax ([4]; male, SD, plasma, iv, 1 mg/kg): 644 ng/mL
- Tmax ([4]; male, SD, plasma, iv, 1 mg/kg): 0.08 h
- C0 ([4]; male, SD, plasma, iv, 1 mg/kg, extrapolated to tzero): 932 ng/mL
- half-life ([4]; male, SD, plasma, iv, 1 mg/kg): 1.7 h
- Cmax ([4]; male, SD, plasma, po, 5 mg/kg): 340 ng/mL
- Tmax ([4]; male, SD, plasma, po, 5 mg/kg): 0.25 h
- bioavailability ([4]; male, SD, plasma, po, 5 mg/kg): 29%
- half-life ([4]; male, SD, plasma, po, 5 mg/kg): 2.18 h
- Cmax ([4]; male, SD, plasma, po, 20 mg/kg): 1520 ng/mL
- Tmax ([4]; male, SD, plasma, po, 20 mg/kg): 0.25 h
- bioavailability ([4]; male, SD, plasma, po, 20 mg/kg): 27.2%
- half-life ([4]; male, SD, plasma, po, 20 mg/kg): 2.3 h
- AUC(t-∞) dose normalized ([4]; iv, 1 mg/kg): 321.32 kg·ng·h/mL/mg
- Cmax dose normalized ([4]; iv, 1 mg/kg): 643.67 kg·ng/mL/mg
- V (terminal) ([4]; iv, 1 mg/kg): 7.61859 L/kg
- AUC(t-∞) dose normalized ([4]; po, 5 mg/kg): 93.34 kg·ng·h/mL/mg
- Cmax dose normalized ([4]; po, 5 mg/kg): 68.07 kg·ng/mL/mg
- AUC(t-∞) dose normalized ([4]; po, 20 mg/kg): 87.49 kg·ng·h/mL/mg
- Cmax dose normalized ([4]; po, 20 mg/kg): 75.83 kg·ng/mL/mg
- Metabolic Stability 60 min (rat) [% remain.] ([5]; 60 min): 88 % remain.
- Metabolic Stability T½ [min] (rat) [5]: 60 (60) min
- Metabolic Stability T½ [min] mouse [6]: > 60 min
- Metabolic Stability 60 min mouse [% remain.] ([6]; 1 h): 74 % remain.
SMILES: CN1CCC[C@H](NC(=O)CC(C)(C)C)C(=O)N2C[C@@H](O)C[C@H]2COc2cccc(c2)C1=O [Ex. 571, N-[(4S,6S,10S)-6-hydroxy-14-methyl-9,15-dioxo-2-oxa-8,14-diazatricyclo[14.3.1.0^4,8]icosa-1(20),16,18-trien-10-yl]-3,3-dimethylbutanamide]
